Reference: patent US10781224B2, “Bis(oxymethyl)phosphinic acid and biogenic metal salts thereof as regulators of plant growth and development” (priority 2016, dated 2020)

System: rice (Diamant variety)
Assay: Rice seed treatment with BHMPA salts: germinating power
Format: in vivo
Conditions: for Length, root / Length, root, + % to control / Length, sprout / Length, sprout, + % to control / Mass, dry, root / Mass, dry, root, + % to control / Mass, dry, sprout / Mass, dry, sprout, + % to control / Mass, wet, root / Mass, wet, root, + % to control / Mass, wet, sprout / Mass, wet, sprout, + % to control: rice seed treatment
In short: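 Seeds (50 per Petri dish on two layers of filter paper) soaked 1 h in BHMPA or its Ca, Mg, Na, Co, Mn, Cu or Zn salts at 1·10^−6-1·10^−12%, with water controls. Germination energy read on day 4, germination on day 8 (wheat) or day 7 (rice, corn), as % means of four replicates. Germinating power taken as root and sprout length plus wet and dry mass per 100 seedlings.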

[1] = comparison with Melaphen (Table XXXIII), solution 1 · 10^−10%
[2] = experimental solution 1 · 10^−6%
[3] = experimental solution 1 · 10^−7%
[4] = experimental solution 1 · 10^−8%
[5] = experimental solution 1 · 10^−9%
[6] = experimental solution 1 · 10^−10%
[7] = experimental solution 1 · 10^−11%
[8] = experimental solution 1 · 10^−12%
[9] = rice, vs control, 1·10^−10% solution

## Copper BHMPA Salt [Cu-salt]
rice
  optimum concentration for treating rice seeds before sowing: 1·10^−10%
[1]
  Length, root: 6.3 cm
  Length, root, + % to control: 31%
  Length, sprout: 3.3 cm
  Length, sprout, + % to control: 27%
  Mass, dry, root: 0.26 g/100 plantlings
  Mass, dry, root, + % to control: 24%
  Mass, dry, sprout: 0.27 g/100 plantlings
  Mass, dry, sprout, + % to control: 8%
  Mass, wet, root: 1.35 g/100 plantlings
  Mass, wet, root, + % to control: 38%
  Mass, wet, sprout: 2.25 g/100 plantlings
  Mass, wet, sprout, + % to control: 49%
[2]
  Length, root: 5.4 cm
  Length, root, + % to control: 6%
  Length, sprout: 2.6 cm
  Length, sprout, + % to control: 8%
  Mass, dry, root: 0.19 g/100 plantlings
  Mass, dry, root, + % to control: 12%
  Mass, dry, sprout: 0.26 g/100 plantlings
  Mass, dry, sprout, + % to control: 13%
  Mass, wet, root: 0.93 g/100 plantlings
  Mass, wet, root, + % to control: 13%
  Mass, wet, sprout: 1.47 g/100 plantlings
  Mass, wet, sprout, + % to control: 6.5%
[3]
  Length, root: 5.5 cm
  Length, root, + % to control: 8%
  Length, sprout: 2.7 cm
  Length, sprout, + % to control: 12.5%
  Mass, dry, root: 0.21 g/100 plantlings
  Mass, dry, root, + % to control: 23.5%
  Mass, dry, sprout: 0.29 g/100 plantlings
  Mass, dry, sprout, + % to control: 26%
  Mass, wet, root: 1.03 g/100 plantlings
  Mass, wet, root, + % to control: 26%
  Mass, wet, sprout: 1.61 g/100 plantlings
  Mass, wet, sprout, + % to control: 17%
[4]
  Length, root: 5.7 cm
  Length, root, + % to control: 12%
  Length, sprout: 2.8 cm
  Length, sprout, + % to control: 17%
  Mass, dry, root: 0.23 g/100 plantlings
  Mass, dry, root, + % to control: 35%
  Mass, dry, sprout: 0.31 g/100 plantlings
  Mass, dry, sprout, + % to control: 35%
  Mass, wet, root: 1.09 g/100 plantlings
  Mass, wet, root, + % to control: 33%
  Mass, wet, sprout: 1.74 g/100 plantlings
  Mass, wet, sprout, + % to control: 26%
[5]
  Length, root: 5.9 cm
  Length, root, + % to control: 16%
  Length, sprout: 2.8 cm
  Length, sprout, + % to control: 17%
  Mass, dry, root: 0.25 g/100 plantlings
  Mass, dry, root, + % to control: 47%
  Mass, dry, sprout: 0.33 g/100 plantlings
  Mass, dry, sprout, + % to control: 43%
  Mass, wet, root: 1.16 g/100 plantlings
  Mass, wet, root, + % to control: 41%
  Mass, wet, sprout: 1.92 g/100 plantlings
  Mass, wet, sprout, + % to control: 39%
[6]
  Length, root: 6.0 cm
  Length, root, + % to control: 18%
  Length, sprout: 2.9 cm
  Length, sprout, + % to control: 21%
  Mass, dry, root: 0.27 g/100 plantlings
  Mass, dry, root, + % to control: 59%
  Mass, dry, sprout: 0.36 g/100 plantlings
  Mass, dry, sprout, + % to control: 56.5%
  Mass, wet, root: 1.22 g/100 plantlings
  Mass, wet, root, + % to control: 49%
  Mass, wet, sprout: 2.11 g/100 plantlings
  Mass, wet, sprout, + % to control: 53%
[7]
  Length, root: 5.9 cm
  Length, root, + % to control: 16%
  Length, sprout: 2.7 cm
  Length, sprout, + % to control: 12.5%
  Mass, dry, root: 0.24 g/100 plantlings
  Mass, dry, root, + % to control: 41%
  Mass, dry, sprout: 0.32 g/100 plantlings
  Mass, dry, sprout, + % to control: 39%
  Mass, wet, root: 1.12 g/100 plantlings
  Mass, wet, root, + % to control: 36.5%
  Mass, wet, sprout: 1.87 g/100 plantlings
  Mass, wet, sprout, + % to control: 35.5%
[8]
  Length, root: 5.6 cm
  Length, root, + % to control: 10%
  Length, sprout: 2.6 cm
  Length, sprout, + % to control: 8%
  Mass, dry, root: 0.20 g/100 plantlings
  Mass, dry, root, + % to control: 18%
  Mass, dry, sprout: 0.27 g/100 plantlings
  Mass, dry, sprout, + % to control: 17%
  Mass, wet, root: 1.01 g/100 plantlings
  Mass, wet, root, + % to control: 23%
  Mass, wet, sprout: 1.75 g/100 plantlings
  Mass, wet, sprout, + % to control: 27%
[9]
  dry mass of the roots increased by: 59%
  dry mass of the sprouts increased by: 56.5%
  length of the root increased by: 18%
  length of the sprout increased by: 21%
  wet mass of the roots increased by: 49%
  wet mass of the sprouts increased by: 53%
